The text below walks through data of article PMC10277484, “Bioactivity and nutritional quality of nutgall (Rhus semialata Murray), an underutilized fruit of Manipur” (Frontiers in Nutrition, 2023).

The nature of assay [1]: DPPH radical scavenging assay. It counts as biochemical. Particulars: 30 min in the dark, 517 nm. The method, then:
0.1 mL of each of the five different concentrations of the extract was mixed with 1.9 mL DPPH reagent prepared in methanol (A517 = 1.1 + 0.01). The mixture was incubated for 30 min in the dark and then read at 517 nm. The radical scavenging activity (RSA) of each extract was calculated as follows ([26]).
RSA%=(Acontrol−Asample)/AcontrolX100%
From the RSA%, 50 inhibitory concentration (IC50) was calculated and expressed in μg/mL.
(DPPH is a stable violet radical that fades when it is reduced.)

Assay [2] can be described thus: ABTS radical scavenging assay. The format is biochemical. Particulars: 30 min in the dark, 734 nm. The method, then:
ABTS radical scavenging activity was performed as described by Singh et al. ([26]). The reaction mixture containing 0.1 mL of extract was mixed with 1.9 mL ABTS radical ([…] = 1.0 ± 0.01) then incubated for 30 min in the dark, and the absorbance was read at 734 nm. RSA and IC50 of the extract were calculated as described above.

For assay [3], the system named is Bacillus subtilis. Description: Kirby-Bauer disk diffusion antibacterial assay. The following applies: 6 mm disc, extract 0.5 mg, chloramphenicol 0.025 mg, 24 h 37°C. The format is cell-based. On the procedure:
(§1) The Kirby-Bauer disk diffusion method ([31]) was used for the evaluation of the antibacterial activity of MExt. Four test organisms, viz.; Salmonella typhimurium (ATTC13311), Escherichia coli (MTCC 739), Bacillus subtilis (MTTCC 121), Staphylococcus aureus (ATCC 1026), were grown in Mueller-Hinton broth (MHB) at 37°C and 160 rpm and brought to its exponential phase. The sample was prepared by dissolving the MExt in 50% DMSO (at 25 mg/mL w/v concentration) and filtering through a (0.22 μm) syringe filter. Hundred microliter of each bacterial strain, equivalent to 0.5 McFarland turbidity were spread over sterile Mueller-Hinton agar (MHA) plate using a sterile swab. A 20 μL sample (0.5 mg) impregnated in a 6 mm sterile disc was seeded on the freshly spread MHA plates and incubated for 24 h at 37°C. Chloramphenicol 0.025 mg was used as a positive control. One reagent control containing the buffer and solvent used was also included in the experiment. The zone of inhibition was recorded using a Vernier caliper.

For assay [4], the system named is Escherichia coli. The experiment in a line: Kirby-Bauer disk diffusion antibacterial assay. The format is cell-based. Particulars: 6 mm disc, extract 0.5 mg, chloramphenicol 0.025 mg, 24 h 37°C, read-out: Inhibition zone, Eschericia coli. The method, then:
as §1
For orientation: Agar diffusion results depend on both activity and mobility in agar.

The test system of assay [5] is Staphylococcus aureus. The experiment in a line: Kirby-Bauer disk diffusion antibacterial assay. Particulars: 6 mm disc, extract 0.5 mg, chloramphenicol 0.025 mg, 24 h 37°C. It counts as cell-based. On the procedure: as §1
The test system of assay [6] is Salmonella typhi. The experiment in a line: Kirby-Bauer disk diffusion antibacterial assay. It counts as cell-based. The following applies: Salmonella enterica, 24 h, read-out: Inhibition zone, Salmonella typhi.
Assay [7] has as its system HeLa (human cervical cancer cell line). The experiment in a line: In vitro cytotoxicity, Sulforhodamine B (SRB) assay. It counts as cell-based. The following applies: 48 h, read-out: IC50 against HeLa cells. On the procedure: The cytotoxic activity of MExt was investigated using Sulforhodamine B colorimetric (SRB) assay against HeLa (human cervical cancer cell line). The cell was maintained in a Dulbecco’s Modified Eagle Medium (DMEM). […] The monolayer cells were then fixed with 10% Trichloroacetic acid (TCA) for 1 h at […] followed by washing with water. After drying, the cell plates were stained with SRB for 30 min and then washed with 1% acetic acid. The SRB dye bound to the protein was then dissolved by adding 10 mM Tris base (pH 10.5). The SRB dye released was quantified by taking absorbance at 510 nm in Varioskan Flash Multimode Reader (Thermo Fisher Scientific, United States) ([32]).

In general, IC50 refers to the point on the concentration scale where inhibition reaches its midpoint.

Where only a bound is given, the exact number is not on record here.

On to `O=C1O[C@H]([C@@H](O)CO)C(O)=C1O` [Ascorbic acid], for which the “DPPH (IC50)” value was determined as 3 mg/L in assay [1] and 5.40 ± 0.30 mg/L in assay [1] (listed as Vitamin C). For the same compound, the “ABTS (IC50)” value in assay [2] was 5.4 mg/L; in assay [2] (listed as Vitamin C), 3.00 ± 0.40 mg/L.

As to `O=C(N[C@H](CO)[C@H](O)c1ccc([N+](=O)[O-])cc1)C(Cl)Cl` [Chloramphenicol], the zone of inhibition at 25 µg/disc in assay [3] turned out to be 30.2 ± 1.6 mm; in assay [4] it was 28 ± 2.2 mm; in assay [5], 29 ± 1 mm; in assay [6], 30 ± 2 mm.

As to `COc1cccc2c1C(=O)c1c(O)c3c(c(O)c1C2=O)C[C@@](O)(C(=O)CO)C[C@@H]3O[C@H]1C[C@H](N)[C@H](O)[C@H](C)O1` [Doxorubicin], the IC50 in assay [7] is less than 5 mg/L.
